Where two headings read alike, the source gives them in different places.
Experiments:
[1] = target: T1, COX-1 (Ovis aries, UniProt P05979); assay: COX-1 enzyme immunoassay (Cayman inhibitor screening kit); assay type: biochemical
T1 construct: purchased Cayman Chemical Co. 560131
T1 sequence (P05979 25-600): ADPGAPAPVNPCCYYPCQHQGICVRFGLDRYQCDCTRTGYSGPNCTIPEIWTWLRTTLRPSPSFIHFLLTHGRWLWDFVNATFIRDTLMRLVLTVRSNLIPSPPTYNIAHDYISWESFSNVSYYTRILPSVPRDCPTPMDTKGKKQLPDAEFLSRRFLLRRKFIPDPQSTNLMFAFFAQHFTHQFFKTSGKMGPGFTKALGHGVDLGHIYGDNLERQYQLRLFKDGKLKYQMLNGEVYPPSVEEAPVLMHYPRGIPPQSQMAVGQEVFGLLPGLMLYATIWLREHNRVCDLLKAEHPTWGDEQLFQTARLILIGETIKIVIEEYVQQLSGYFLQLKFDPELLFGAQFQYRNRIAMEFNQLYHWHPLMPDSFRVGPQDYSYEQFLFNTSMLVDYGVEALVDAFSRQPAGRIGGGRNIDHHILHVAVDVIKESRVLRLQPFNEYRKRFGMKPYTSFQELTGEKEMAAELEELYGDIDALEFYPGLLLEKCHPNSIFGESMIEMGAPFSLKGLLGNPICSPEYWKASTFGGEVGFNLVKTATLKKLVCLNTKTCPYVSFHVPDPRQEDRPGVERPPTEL
Method: (§1) Principally, the catalytic activity of COX-1/2 is slowed down in the presence of its inhibitor and quantitatively, it is inversely proportional to the amount of prostaglandin produced in the presence of inhibitor.
(§2) The enzyme inhibition screening assay kits for COX-1/2 and 5-LOX with item no. […] The 100% initial activity tubes for the two enzymes contained 10 µL heme and 10 µL of the enzyme in 160 µL reaction buffer. Then 10 µL inhibitor (compound of above mentioned concentrations) was added to the inhibitor tubes for the two enzymes and 10 µL of vehicle (DMSO) was added to 100% initial activity and background tubes. All the tubes were incubated for 10 min at 37 °C and the reaction was started by adding 10 µL arachidonic acid to all the reaction tubes. After incubation of the reaction vials for 2 min at 37 °C, the enzyme catalysis was stopped by adding 30 µL saturated stannous chloride solution to each test tube and solutions were kept at 0–4 °C. For EIA (enzyme immunoassay) procedure: the EIA buffers and assay specific reagents were prepared as written in the manual. In the COX dilutions, two test tubes labelled as BC1 and BC2 were taken to prepare background samples. Each tube contained 990 µL of EIA buffer and 10 µL of background COX-1 for BC1 and 10 µL of background COX-2 for BC2. The samples for 100% initial activity were diluted in three vials labelled IA1, IA2 and IA3 for each enzyme. IA1 contained 990 µL EIA buffer and 10 µL enzyme, IA2 has 950 µL buffer and 50 µL solution of IA1 (1:2000 dilution of original sample) and IA3 carried 500 µL of buffer and 500 µL of IA2 solution (1:4000 dilution of original sample). Each solution was thoroughly mixed. Solutions of IA2 and IA3 were used for the assaying. […] C2 contained 950 µL buffer and 50 µL solution of C1 (1:2000 dilution of original sample) and vial C3 was charged with 500 µL buffer and 500 µL solution from C2 (1: 4000 dilution of original sample). Only C2 and C3 were run in the assay. After all the reaction dilutions, these were then subjected to 96 wells plate. The wells were divided as: 2 blank wells, 2 NSB wells (non-specific binding), 3 B0 wells (maximum binding), one TA well (total activity), 16 wells for standards (S1–S8 in repeat), 2 BC1 and 2 BC2 wells. Compounds (inhibitors) were put in all the other wells. The sequence for the addition of reagents onto the plate was as per the protocol of the assay kit. […] For developing the plate; it was emptied and washed with wash buffer 5 times followed by the addition of 200 µL Ellman’s reagent to each well. 5 µL tracer was added to the TA well. Then the plate was covered and left for 60 mins for development in dark. After the respective time period the cover was removed and the plate was read at 420 nm. %B/Bo (i.e. % sample or maximum bound) value for standards S1-S8 and each sample was determined from the absorbance values obtained according to the calculation given in the protocol. The amount of prostaglandins formed during the enzymatic reaction was calculated from the values of %B/Bo for all the compounds at all concentrations with the help of the standard curve (plotted between %B/Bo of standards and raw data given in the protocol). Then the prostaglandin formed at each concentration of all the compounds and percentage inhibition values were calculated. The graph between percent inhibition of the enzyme and corresponding concentration of the compound provided IC50 values for the compounds.

[2] = target: T2, COX-1 (Homo sapiens, UniProt P23219); assay: Human whole blood assay for COX-1 (A23187 stimulated TxB2); assay type: cell-based; settings: final conc 1 µM, A23187 50 µM
T2 construct: endogenous in cells; host or cells: human whole blood (heparinized, venipuncture)
Source text: The use of human blood for the whole blood assay was duly approved by the institutional ethical committee of the University for human subjects. Production of prostaglandin PGE2 during lipopolysaccharide (LPS) stimulated whole blood was used to quantify COX-2 inhibitory activity whereas calcium ionophore (A23187) stimulated thromboxane (TxB2) production was used to measure COX-1 inhibitory activity of the compounds.
Approval for the use of human blood was taken from the institutional ethical committee of Guru Nanak Dev University Amritsar and informed consent was obtained from the subject[32],[33]. All experiments were performed in accordance with the relevant guidelines and regulations. By venipuncture, the blood sample was collected in heparinized tubes. […] Each sample in duplicate was assayed for TxB2 (the breakdown product of TxA2) using TXB2 Express ELISA kit (Cayman Chemicals, Ann Arbor, MI) by the reported protocol.

[3] = target: T3, COX-2 (Homo sapiens, UniProt P35354); assay: COX-2 enzyme immunoassay (Cayman inhibitor screening kit); assay type: biochemical; parameters: purchased Cayman Chemical Co. 560131; settings: for Selectivity index: SI = IC50 (COX-1)/ IC50 (COX-2); for IC50: enzyme immunoassay, average of three experiments
T3 sequence (P35354 18-604): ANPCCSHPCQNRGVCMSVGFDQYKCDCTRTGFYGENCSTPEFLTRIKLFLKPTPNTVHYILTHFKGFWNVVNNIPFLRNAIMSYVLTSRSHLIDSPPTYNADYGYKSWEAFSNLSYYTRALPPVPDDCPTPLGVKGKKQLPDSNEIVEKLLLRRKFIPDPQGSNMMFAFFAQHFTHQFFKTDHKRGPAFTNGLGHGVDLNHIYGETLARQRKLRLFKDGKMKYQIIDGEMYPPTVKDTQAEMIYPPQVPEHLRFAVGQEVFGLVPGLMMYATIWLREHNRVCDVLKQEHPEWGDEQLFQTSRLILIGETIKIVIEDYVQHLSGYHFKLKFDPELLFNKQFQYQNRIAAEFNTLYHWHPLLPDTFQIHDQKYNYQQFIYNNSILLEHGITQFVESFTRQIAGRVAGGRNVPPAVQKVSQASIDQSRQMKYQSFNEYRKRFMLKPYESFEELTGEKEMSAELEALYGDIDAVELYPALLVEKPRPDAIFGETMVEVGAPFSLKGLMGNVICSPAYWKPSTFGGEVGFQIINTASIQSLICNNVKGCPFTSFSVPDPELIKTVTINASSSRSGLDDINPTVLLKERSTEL
Method: as §1, §2

[4] = enzyme immunoassay, average of three experiments, read-out: IC50 COX-1

T2 sequence (P23219 24-599): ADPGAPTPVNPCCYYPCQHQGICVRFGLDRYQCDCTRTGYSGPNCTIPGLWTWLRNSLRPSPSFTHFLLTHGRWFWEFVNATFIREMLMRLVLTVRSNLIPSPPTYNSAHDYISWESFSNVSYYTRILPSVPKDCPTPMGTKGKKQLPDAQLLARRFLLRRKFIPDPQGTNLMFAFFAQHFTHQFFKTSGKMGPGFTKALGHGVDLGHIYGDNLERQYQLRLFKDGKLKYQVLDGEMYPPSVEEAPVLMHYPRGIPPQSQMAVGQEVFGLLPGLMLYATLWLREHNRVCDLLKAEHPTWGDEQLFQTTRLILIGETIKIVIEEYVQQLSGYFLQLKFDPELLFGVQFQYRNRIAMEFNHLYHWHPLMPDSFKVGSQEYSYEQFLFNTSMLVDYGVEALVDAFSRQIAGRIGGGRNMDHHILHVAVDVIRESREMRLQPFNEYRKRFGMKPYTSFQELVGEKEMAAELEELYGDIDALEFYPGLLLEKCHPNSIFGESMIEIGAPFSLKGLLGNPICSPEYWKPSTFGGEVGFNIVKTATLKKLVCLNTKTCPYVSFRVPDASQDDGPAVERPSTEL

SMILES	IC50 [1]	Production of TXB2, +Ca^2+ Ionophore [2]	Selectivity index [3]	IC50 [3]	IC50 [1, 4]
O=C1NC(=O)C(=Cc2cn(CCCn3c4ccccc4c(=O)c4ccccc43)c3ccccc23)C(=O)N1 [Compound 4a]	30000 ± 1800 nM	1.84 ± 0.11 ng/mL	300	100 ± 60 nM	–
O=C1Nc2ccccc2C1=Cc1cn(C[C@H](O)Cn2c3ccccc3c(=O)c3ccccc32)c2ccccc12 [(S)-3c]	–	1.80 ± 0.5 ng/mL	–	800 ± 75 nM	60000 ± 3000 nM
O=C1Nc2ccccc2C1=Cc1cn(CCCn2c3ccccc3c(=O)c3ccccc32)c2ccccc12 [Compound 4c]	–	1.70 ± 0.3 ng/mL	13.33	300 ± 15 nM	4000 ± 320 nM
